Experimental data: patent publication US8463552B1, “Methods for medicinal dosage determination and diagnosis” (priority 2005, dated 2013)

What was measured:
[1] = tested on: brain volumes of interest (BOLD signal); experiment: BOLD-sensitive fMRI of anesthetized monkey during i.v. infusion of SKF82958; type: in vivo, M. fascicularis; conditions: 0.1 mg/kg total i.v. infusion from 10 to 15 min; one VOI in one subject; 1.5% isoflurane; FIG. 12
Text: To determine how the noise levels in the simulation data just described correspond to realistic biological data, we acquired data using BOLD-sensitive fMRI imaging of an anesthetized monkey with administration of the dopamine agonist SKF82958. Experiments were approved in advance by the Washington University Animal Studies Committee and due care was exercised to prevent discomfort to the animal. During imaging sessions the animal's health was monitored by veterinary staff from the Washington University Division of Comparative Medicine. Two male M. fascicularis monkeys were studied. Imaging was done while the animals were ventilated with 1.5% isoflurane in oxygen. We obtained repeated whole-brain BOLD-sensitive fMRI images at a repetition interval of one every 3 seconds over a 40-minute period. At 10 minutes into the imaging session a steady-rate, slow intravenous infusion of the dopamine D1 agonist. SKF82958 was commenced finishing at 15 minutes, with a total administered dose of 0.1 mg/kg. […] Volumes of interest (VOIs) were traced on structural brain images acquired at the same session. These included left and right caudate, left and right putamen, striatum collectively, whole brain, and a midbrain region. Time-activity curves from each VOI were extracted and submitted to the computer method described above. […]

[2] = tested on: whole-brain and regional blood flow; conditions: total administered dose 0.1 mg/kg; cited from earlier work

C=CCN1CCc2c(cc(O)c(O)c2Cl)C(c2ccccc2)C1 (stereo not shown) [SKF82958]
Emax (magnitude of BOLD response in VOI time-activity curve) [1]: at least 20 | effect on whole-brain mean quantitative blood flow [2]: does not affect | effects on regional blood flow consistent with local neuronal activation [2]: produces reliable effects | safety of dose [2]: safe
